The NIST ThermoML archive (doi:10.1021/je800110r)
± gives the expanded uncertainty stated by the source.

Conditions: Liquid, Vibrating tube method

CCCCCCCCCC [decane]
Conditions	mass density [kg/m3]
313.15 K, 25586 kPa	734.5 ± 2.1
313.15 K, 25902 kPa	734.7 ± 2.1
313.15 K, 25935 kPa	734.7 ± 2.1
313.15 K, 25969 kPa	734.6 ± 2.1
313.15 K, 25993 kPa	734.9 ± 2.1
313.15 K, 26027 kPa	734.7 ± 2.1
313.15 K, 26065 kPa	734.7 ± 2.1
313.15 K, 26104 kPa	734.9 ± 2.1
313.15 K, 26144 kPa	735 ± 2.1
313.15 K, 26173 kPa	734.9 ± 2.1
313.15 K, 26208 kPa	734.9 ± 2.1
313.15 K, 26233 kPa	734.9 ± 2.1
313.15 K, 26272 kPa	735 ± 2.1
313.15 K, 26306 kPa	735 ± 2.1
313.15 K, 26341 kPa	735 ± 2.1
313.15 K, 26370 kPa	735.1 ± 2.1
313.15 K, 26410 kPa	735 ± 2.1
313.15 K, 26440 kPa	735.2 ± 2.1
313.15 K, 26475 kPa	735.2 ± 2.1
313.15 K, 26510 kPa	735.1 ± 2.1
313.15 K, 26557 kPa	735.1 ± 2.1
313.15 K, 26582 kPa	735.1 ± 2.1
313.15 K, 26614 kPa	735.3 ± 2.1
313.15 K, 26655 kPa	735.3 ± 2.1
313.15 K, 26690 kPa	735.2 ± 2.1
313.15 K, 26722 kPa	735.3 ± 2.1
313.15 K, 26763 kPa	735.3 ± 2.1
313.15 K, 26799 kPa	735.4 ± 2.1
313.15 K, 26842 kPa	735.3 ± 2.1
313.15 K, 26874 kPa	735.3 ± 2.1
313.15 K, 26911 kPa	735.5 ± 2.1
313.15 K, 26941 kPa	735.5 ± 2.1
313.15 K, 26969 kPa	735.5 ± 2.1
313.15 K, 26998 kPa	735.6 ± 2.1
313.15 K, 27035 kPa	735.4 ± 2.1
313.15 K, 27058 kPa	735.5 ± 2.1
313.15 K, 27874 kPa	736 ± 2.1
313.15 K, 27972 kPa	736 ± 2.1
313.15 K, 28011 kPa	736.2 ± 2.1
313.15 K, 28036 kPa	736 ± 2.1
313.15 K, 28071 kPa	736.1 ± 2.1
313.15 K, 28101 kPa	736.2 ± 2.1
313.15 K, 28131 kPa	736.2 ± 2.1
313.15 K, 28162 kPa	736.3 ± 2.1
313.15 K, 28202 kPa	736.3 ± 2.1
313.15 K, 28237 kPa	736.3 ± 2.1
313.15 K, 28272 kPa	736.3 ± 2.1
313.15 K, 28297 kPa	736.3 ± 2.1
313.15 K, 28327 kPa	736.3 ± 2.1
313.15 K, 28372 kPa	736.4 ± 2.1
313.15 K, 28403 kPa	736.4 ± 2.1
313.15 K, 28449 kPa	736.5 ± 2.1
313.15 K, 28480 kPa	736.5 ± 2.1
313.15 K, 28515 kPa	736.4 ± 2.1
313.15 K, 28542 kPa	736.5 ± 2.1
313.15 K, 28578 kPa	736.5 ± 2.1
313.15 K, 28619 kPa	736.5 ± 2.1
313.15 K, 28645 kPa	736.5 ± 2.1
313.15 K, 28692 kPa	736.6 ± 2.1
313.15 K, 28723 kPa	736.7 ± 2.1
313.15 K, 28750 kPa	736.7 ± 2.1
313.15 K, 28791 kPa	736.7 ± 2.1
313.15 K, 28828 kPa	736.6 ± 2.1
313.15 K, 28860 kPa	736.8 ± 2.1
313.15 K, 28902 kPa	736.7 ± 2.1
313.15 K, 28945 kPa	736.8 ± 2.1
313.15 K, 28971 kPa	736.8 ± 2.1
313.15 K, 29019 kPa	736.8 ± 2.1
313.15 K, 29061 kPa	736.9 ± 2.1
313.15 K, 29168 kPa	737 ± 2.1
313.15 K, 30647 kPa	737.9 ± 2.1
313.15 K, 30676 kPa	738 ± 2.1
313.15 K, 30710 kPa	737.9 ± 2.1
313.15 K, 30738 kPa	738 ± 2.1
313.15 K, 30777 kPa	738 ± 2.1
313.15 K, 30816 kPa	738.1 ± 2.1
313.15 K, 30856 kPa	738.1 ± 2.1
313.15 K, 30889 kPa	738.1 ± 2.1
313.15 K, 30929 kPa	738 ± 2.1
313.15 K, 30974 kPa	738.1 ± 2.1
313.15 K, 31089 kPa	738.2 ± 2.1
313.15 K, 31432 kPa	738.4 ± 2.1
313.15 K, 31467 kPa	738.4 ± 2.1
313.15 K, 31515 kPa	738.4 ± 2.1
313.15 K, 31562 kPa	738.5 ± 2.1
313.15 K, 31610 kPa	738.4 ± 2.1
313.15 K, 31646 kPa	738.6 ± 2.1
313.15 K, 31694 kPa	738.6 ± 2.1
313.15 K, 31736 kPa	738.6 ± 2.1
313.15 K, 31766 kPa	738.4 ± 2.1
313.15 K, 31815 kPa	738.6 ± 2.1
313.15 K, 31856 kPa	738.6 ± 2.1
313.15 K, 31901 kPa	738.7 ± 2.1
313.15 K, 31947 kPa	738.7 ± 2.1
313.15 K, 31981 kPa	738.7 ± 2.1
313.15 K, 32023 kPa	738.8 ± 2.1
313.15 K, 32070 kPa	738.8 ± 2.1
313.15 K, 32100 kPa	738.9 ± 2.1
313.15 K, 32135 kPa	738.9 ± 2.1
313.15 K, 32176 kPa	738.9 ± 2.1
313.15 K, 32213 kPa	738.9 ± 2.1
313.15 K, 32253 kPa	738.9 ± 2.1
313.15 K, 32294 kPa	738.9 ± 2.1
313.15 K, 32345 kPa	739 ± 2.1
313.15 K, 32379 kPa	739 ± 2.1
313.15 K, 32413 kPa	739 ± 2.1
313.15 K, 32459 kPa	739.1 ± 2.1
313.15 K, 32491 kPa	739.1 ± 2.1
313.15 K, 32528 kPa	739.1 ± 2.1
313.15 K, 32561 kPa	739.1 ± 2.1
313.15 K, 32592 kPa	739.3 ± 2.1
313.15 K, 32633 kPa	739.1 ± 2.1
313.15 K, 32666 kPa	739.2 ± 2.1
313.15 K, 32704 kPa	739.3 ± 2.1
313.15 K, 32737 kPa	739.3 ± 2.1
313.15 K, 32770 kPa	739.3 ± 2.1
313.16 K, 339 kPa	714.8 ± 2
313.16 K, 365 kPa	714.9 ± 2
313.16 K, 391 kPa	715 ± 2
313.16 K, 423 kPa	715 ± 2
313.16 K, 450 kPa	714.9 ± 2
313.16 K, 478 kPa	715 ± 2
313.16 K, 508 kPa	715 ± 2
313.16 K, 548 kPa	715.1 ± 2
313.16 K, 579 kPa	715.1 ± 2
313.16 K, 595 kPa	715.2 ± 2
313.16 K, 607 kPa	715.1 ± 2
313.16 K, 620 kPa	715 ± 2
313.16 K, 631 kPa	715.1 ± 2
313.16 K, 651 kPa	715.2 ± 2
313.16 K, 661 kPa	715.1 ± 2
313.16 K, 673 kPa	715.3 ± 2
313.16 K, 686 kPa	715.2 ± 2
313.16 K, 699 kPa	715.2 ± 2
313.16 K, 719 kPa	715.2 ± 2
313.16 K, 733 kPa	715.2 ± 2
